Measurements from patent publication US11419914B2 (Serenity Pharmaceuticals LLC, priority 2009, dated 2022).
Read-outs that look alike come from different tables or passages of the source.

How the values were obtained:
clinical = conditions: human, in vivo, inhaled or intranasal
Procedure: (§1) The open-label preliminary study of the effects and pharmacokinetics of the prototype dispensers was conducted with six male and six female healthy, water loaded, non-smoking volunteer subjects, following the protocol described generally below. In summary, each subject was dosed up to four times over a period of one week with dosing administered every other day. […] All subjects were screened prior to the first treatment, including evaluations of medical history, complete physical exam including nasopharyngeal exam, serum chemistry including serum osmolality, urinalysis including urine osmolality.
On day one all subjects were asked to have his/her morning void prior to breakfast, and thereafter subjects started the water loading process. […] Insensible loss was not measured or replaced. […]
Blood sampling for pharmacokinetic determinations was performed at 1, 1.5, 2, 3, 4 and 6 hours post dose. […] A plasma concentration value below the limit of quantitation (“LOQ”) followed by values above the limit was set at ‘LOQ/2’ for the analysis and for the descriptive statistics on concentrations. […]
Assay values below the level of detection that occurred between two non-zero concentrations were considered to be “missing” for purposes of calculating the AUC. […] Accordingly, an average terminal half-life (Avg T1/2) was calculated for each subject that included a treatment with evaluable half-lives in that subject. […]

[1] = tested on: adult patients with nocturia; assay type: in vivo, human; conditions: 500 and 1000 ng (one or two sprays intranasally)
Procedure: A second separate study in adult patients with nocturia established that doses of 500 and 1000 ng (one or two sprays administered intranasally) produced dramatic therapeutic decreases in the number of night time urinary voids equal to or less than one per night in 41 of 43 patients.

[2] = tested on: human adult subjects in a water loaded state; test: Antidiuretic effect (urine output, urine osmolarity, duration) in water loaded subjects; assay type: in vivo
Procedure: as §1
On day one all subjects were asked to have his/her morning void prior to breakfast, and thereafter subjects started the water loading process. […] To achieve a steady state diuresis, the subjects were directed to drink a volume of water corresponding to at least 1.5% and up to 3% of body weight. The water loading process started about two hours prior to the dosing of the first subject. Subjects were asked to void every 20 minutes. To ensure continuous water loaded state, the subjects replaced their urinary output loss with an equivalent amount of fluid. Insensible loss was not measured or replaced. When the urinary output rate exceeded 10 ml/min in two consecutive measurements (defined as water loaded state) in the subjects, dosing began. Subjects were maintained in the water loaded state with equivalent fluid intake versus fluid loss.
Other than the dose level, all procedures were the same as those described for day one.

[3] = in vivo, cited from earlier work

In the case of `NC(=O)CC[C@@H]1NC(=O)[C@H](Cc2ccccc2)NC(=O)[C@H](Cc2ccc(O)cc2)NC(=O)CCSSC[C@@H](C(=O)N2CCC[C@H]2C(=O)N[C@H](CCCN=C(N)N)C(=O)NCC(N)=O)NC(=O)[C@H](CC(N)=O)NC1=O` [desmopressin, 1-desamino-8-D-arginine vasopressin], the half-life (clinical; both sexes, T1/2) is reported as 1.13 ± 0.3 h, the T1/2 (clinical; both) is reported as 1.33 ± 0.56 h and the “patients with night time urinary voids equal to or less than one per night” value [1] is reported as 41 of 43. For the same compound, the “time urine osmolarity remained greater than about 400 mOsmol/Kg” value ([2]; after 2 μg nasally) was “about 250 minutes”, the “period urine output remained less than 8 ml/minute” value ([2]; after 2000 ng nasally) was “up to 400 minutes” and the mean urine output ([2]; within 20 minutes after 2000 ng nasally, water loaded men and women) was “less than 8 ml/minute”. For the same compound, the mean urine osmolarity ([2]; within 40 minutes after 2 μg nasally) was “greater than 400 mOsmol/kg”, the bioavailability ([3]; human, inhaled or intranasal) was 3-5% and the half life ([3]; human) was ≥ 1.5 h. The bioavailability ([3]; po) was “far less than one percent”.
